The structures appear in SMILES notation. Where “and” joins values, the source holds several entries; their conditions need not be identical. Equal values may be shown once.

In one experiment the target is KDR kinase (Homo sapiens, UniProt P35968). The experiment in a line: KDR AlphaScreen assay. Particulars: KDR IC50 (μM). A general note: Alpha assays give light when donor and acceptor beads are brought close together.
The next experiment has as its target Pim3 kinase (Homo sapiens, UniProt Q86V86). The experiment is described as follows: Pim3 ATP depletion assay. The class given is biochemical. Particulars: read-out: IC50 (μM) PIM3.
In a further experiment the test system is PC3 cells. The experiment in a line: Cell proliferation assay (CellTiter-Glo), PC3. The class given is cell-based. The conditions noted are these: Homo sapiens, PC-3. As for the experimental part: HEL 92.1.7 cells (ATTC No. TIB-180, an erythroleukemia line derived from malignant peripheral blood), MV4-11 cells (ATCC No. CRL-9591, a human acute monocytic leukemia line) and PC3 cells (ATCC No. CRL-1435, a human prostatic adenocarcinoma line) were cultured in RPMI1640 supplemented with 10% FBS, sodium pyruvate and antibiotics. Cells were plated in the same medium at a density of 1000 cells per well into 96 well tissue culture plates, with outside wells vacant, on the day of assay.
Test compounds supplied in DMSO were diluted into DMSO at 500 times the desired final concentrations before dilution into culture media to 2 times final concentrations. Equal volumes of 2× compounds were added to the cells in 96 well plates and incubated at 37° C. for 3 days.
After 3 days plates were equilibrated to room temperature and equal volume of CellTiter-Glow Reagent (Promega) was added to the culture wells. The plates were agitated briefly and luminescent signal was measured with luminometer. The percent inhibition of the signal seen in cells treated with DMSO alone vs. cells treated with control compound was calculated and used to determine EC50 values (i.e., the concentration of a test compound that is required to obtain 50% of the maximum effect in the cells) for tested compounds, as shown in Example 763.
For orientation: In ATP-based viability assays light output follows the ATP content of the culture.

In another experiment the target is Pim2 kinase (Homo sapiens, UniProt Q9P1W9). The experiment is described as follows: Pim2 ATP depletion assay.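 Also: Luciferase-based luminescent readout of ATP remaining after PIM2 phosphorylates a BAD peptide, final 5 nM enzyme, 4 µM ATP, 10 µM peptide, 2.5% DMSO, run to roughly half ATP consumption.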 The class given is biochemical. Particulars: read-out: IC50 (μM) PIM2.
For another experiment, the target named is Pim1 kinase (Homo sapiens, UniProt P11309). The experiment in a line: Pim1 ATP depletion assay.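 Also: Luciferase-luciferin luminescence readout of residual ATP after PIM1 transfers phosphate to a peptide substrate, 40 µM ATP added, reaction run to roughly half ATP consumption.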 The class given is biochemical. Particulars: Pim1 ATP depletion assay; read-out: IC50 (μM) PIM1.
Experiment [1] has as its target T1, human full length PKCE enzyme (Homo sapiens, UniProt Q02156).
T1 construct: human full length PKCE enzyme purchased from InVitrogen; purchased InVitrogen
T1 sequence (Q02156 1-737): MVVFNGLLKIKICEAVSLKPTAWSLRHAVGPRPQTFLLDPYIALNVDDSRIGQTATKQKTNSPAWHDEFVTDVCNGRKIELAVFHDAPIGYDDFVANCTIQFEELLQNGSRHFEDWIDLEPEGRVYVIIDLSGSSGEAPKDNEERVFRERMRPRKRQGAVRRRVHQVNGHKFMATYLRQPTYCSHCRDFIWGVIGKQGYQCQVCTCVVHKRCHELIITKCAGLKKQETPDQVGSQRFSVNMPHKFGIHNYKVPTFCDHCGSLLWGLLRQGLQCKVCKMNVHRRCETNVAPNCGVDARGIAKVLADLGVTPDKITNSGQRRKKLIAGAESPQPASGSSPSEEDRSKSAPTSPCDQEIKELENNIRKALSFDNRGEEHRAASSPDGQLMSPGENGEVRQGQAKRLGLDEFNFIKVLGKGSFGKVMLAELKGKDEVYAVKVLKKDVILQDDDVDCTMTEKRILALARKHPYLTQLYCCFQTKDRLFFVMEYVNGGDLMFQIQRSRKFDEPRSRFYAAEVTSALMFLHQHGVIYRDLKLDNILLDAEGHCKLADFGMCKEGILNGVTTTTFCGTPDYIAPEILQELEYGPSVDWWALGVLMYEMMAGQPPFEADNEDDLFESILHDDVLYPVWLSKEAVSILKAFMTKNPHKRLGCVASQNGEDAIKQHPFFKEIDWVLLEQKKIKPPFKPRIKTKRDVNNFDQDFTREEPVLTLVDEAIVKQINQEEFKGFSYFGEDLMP
The experiment is described as follows: In vitro PKCE assay. The class given is biochemical. The conditions noted are these: 10 nM enzyme, 40 uM peptide substrate, 20 uM ATP, KinaseGlo Plus readout; read-out: PKCε IC50. On the technique in general: Kinase-Glo measures the ATP left after a reaction by luminescence.

Sequence of KDR kinase (P35968 20-1356): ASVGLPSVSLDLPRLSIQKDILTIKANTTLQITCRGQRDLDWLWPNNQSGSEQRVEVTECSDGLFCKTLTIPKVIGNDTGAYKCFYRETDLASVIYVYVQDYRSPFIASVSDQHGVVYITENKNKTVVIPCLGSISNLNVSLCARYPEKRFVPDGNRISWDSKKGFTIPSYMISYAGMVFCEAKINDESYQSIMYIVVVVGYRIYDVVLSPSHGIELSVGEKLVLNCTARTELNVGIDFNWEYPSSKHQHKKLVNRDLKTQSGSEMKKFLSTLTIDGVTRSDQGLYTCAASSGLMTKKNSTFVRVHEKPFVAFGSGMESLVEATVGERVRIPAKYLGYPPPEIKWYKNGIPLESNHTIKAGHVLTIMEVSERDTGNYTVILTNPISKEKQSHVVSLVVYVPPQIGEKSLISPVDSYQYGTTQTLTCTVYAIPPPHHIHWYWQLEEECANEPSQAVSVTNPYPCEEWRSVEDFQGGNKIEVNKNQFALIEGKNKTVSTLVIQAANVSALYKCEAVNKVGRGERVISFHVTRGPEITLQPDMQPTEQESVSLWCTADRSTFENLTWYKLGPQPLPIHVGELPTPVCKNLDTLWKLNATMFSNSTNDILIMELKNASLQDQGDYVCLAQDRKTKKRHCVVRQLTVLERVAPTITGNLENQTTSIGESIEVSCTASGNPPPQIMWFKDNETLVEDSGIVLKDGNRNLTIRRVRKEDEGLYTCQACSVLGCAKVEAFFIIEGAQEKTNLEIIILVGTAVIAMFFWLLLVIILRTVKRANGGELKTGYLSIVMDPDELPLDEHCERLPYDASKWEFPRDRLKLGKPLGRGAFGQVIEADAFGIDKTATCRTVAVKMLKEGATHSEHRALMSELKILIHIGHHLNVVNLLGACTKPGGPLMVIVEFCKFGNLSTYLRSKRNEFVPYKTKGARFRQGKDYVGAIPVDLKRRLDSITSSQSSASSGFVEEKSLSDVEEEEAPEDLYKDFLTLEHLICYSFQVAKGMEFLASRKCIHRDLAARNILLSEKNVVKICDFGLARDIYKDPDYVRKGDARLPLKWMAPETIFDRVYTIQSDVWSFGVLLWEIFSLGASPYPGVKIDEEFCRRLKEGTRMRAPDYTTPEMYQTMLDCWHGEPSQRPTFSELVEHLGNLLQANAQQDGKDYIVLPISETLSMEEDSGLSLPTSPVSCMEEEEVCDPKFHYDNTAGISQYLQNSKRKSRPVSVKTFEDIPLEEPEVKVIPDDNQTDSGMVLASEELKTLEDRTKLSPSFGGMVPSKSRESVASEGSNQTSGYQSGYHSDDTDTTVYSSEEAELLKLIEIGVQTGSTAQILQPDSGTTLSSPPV
Sequence of Pim2 kinase (Q9P1W9 whole entry): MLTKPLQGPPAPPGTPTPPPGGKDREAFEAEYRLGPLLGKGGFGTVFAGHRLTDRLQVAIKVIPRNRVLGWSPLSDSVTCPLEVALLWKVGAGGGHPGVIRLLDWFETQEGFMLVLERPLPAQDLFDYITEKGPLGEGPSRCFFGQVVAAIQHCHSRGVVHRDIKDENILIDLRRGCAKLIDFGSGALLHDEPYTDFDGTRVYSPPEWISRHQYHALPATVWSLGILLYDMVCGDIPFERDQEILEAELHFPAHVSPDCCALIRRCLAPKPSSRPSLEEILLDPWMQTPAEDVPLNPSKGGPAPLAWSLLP
Sequence of Pim1 kinase (P11309 whole entry): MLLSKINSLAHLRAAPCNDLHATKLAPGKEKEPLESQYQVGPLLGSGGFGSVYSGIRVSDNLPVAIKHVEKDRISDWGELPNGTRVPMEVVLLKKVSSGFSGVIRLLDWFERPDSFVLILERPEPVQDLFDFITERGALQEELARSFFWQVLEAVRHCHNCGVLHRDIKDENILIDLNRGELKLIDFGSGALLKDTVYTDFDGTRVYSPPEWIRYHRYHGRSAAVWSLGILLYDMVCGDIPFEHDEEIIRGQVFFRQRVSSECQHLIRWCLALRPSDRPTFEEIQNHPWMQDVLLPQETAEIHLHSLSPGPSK

What is called IC50 is the concentration at which inhibition is half-maximal. In general, EC50 refers to the concentration that produces a half-maximal response. Read a low EC50 as greater potency. As to `Nc1nccnc1C(=O)Nc1ccccc1N1CCNCC1` [Example 202, 3-amino-N-(2-piperazin-1-ylphenyl)pyrazine-2-carbox-amide], the IC50 is > 25 µM at KDR kinase; 1 to 10 µM at Pim3 kinase; > 25 µM at Pim2 kinase; 1 to 10 µM on Pim1 kinase; < 1000 nM in experiment [1]. For the same compound, the concentration giving a half-maximal response (EC50) in the experiment on PC3 cells fell in the range of 1 to 5 µM.
`Nc1nccnc1C(=O)Nc1ccccc1N1CCC(N)CC1` [Example 203, 3-amino-N-[2-(4-aminopiperidin-1-yl)phenyl]pyrazine-2-carboxamide]: the IC50 was > 25 µM against KDR kinase; < 1 µM at Pim3 kinase; 1 to 10 µM on Pim2 kinase; < 1 µM on Pim1 kinase; < 1000 nM in experiment [1]. The EC50 in the experiment with PC3 cells is < 1 µM.
For the compound `Nc1ncc(Br)nc1C(=O)Nc1ccccc1N1CCC(N)CC1` [Example 205, 3-amino-N-[2-(4-aminopiperidin-1-yl)phenyl]-6-bromopyrazine-2-carboxamide], the IC50 on KDR kinase is 1 to 10 µM; at Pim3 kinase, < 1 µM; on Pim2 kinase it was < 1 µM; on Pim1 kinase it was < 1 µM; in experiment [1], < 1000 nM. Moreover, in the experiment on PC3 cells, the EC50 was < 1 µM.
Regarding `Nc1nccnc1C(=O)Nc1cc(Cl)ccc1N1CCC(N)CC1` [Example 214, 3-amino-N-[2-(4-aminopiperidin-1-yl)-5-chlorophenyl]pyrazine-2-carboxamide], the IC50 against KDR kinase was 10 to 25 µM; on Pim3 kinase, < 1 µM; on Pim2 kinase, 1 to 10 µM; on Pim1 kinase, < 1 µM; in experiment [1], < 1000 nM. Moreover, in the experiment on PC3 cells, the EC50 fell in the range of 1 to 5 µM.
Regarding `Cc1ccc(N2CCC(N)CC2)c(NC(=O)c2nccnc2N)c1` [Example 217, 3-amino-N-[2-(4-aminopiperidin-1-yl)-5-methylphenyl]pyrazine-2-carboxamide], the IC50 against KDR kinase is > 25 µM and 10 to 25 µM; on Pim3 kinase, 1 to 10 µM; on Pim2 kinase it was > 25 µM; on Pim1 kinase, < 1 µM; in experiment [1] it was 10000 to 25000 nM and < 1000 nM. In the experiment on PC3 cells, this compound yielded an EC50 of 5 to 10 µM.
`COc1ccc(N2CCC(N)CC2)c(NC(=O)c2nccnc2N)c1` [Example 222, 3-amino-N-[2-(4-aminopiperidin-1-yl)-5-methoxyphenyl]pyrazine-2-carboxamide]: the IC50 at KDR kinase was > 25 µM; at Pim3 kinase, < 1 µM; on Pim2 kinase, 10 to 25 µM; at Pim1 kinase it was < 1 µM; in experiment [1], < 1000 nM. Also, the EC50 in the experiment on PC3 cells is > 10 µM.
`Cc1ccc(NC(=O)c2nccnc2N)c(N2CCC(N)CC2)c1` [Example 228, 3-amino-N-[2-(4-aminopiperidin-1-yl)-4-methylphenyl]pyrazine-2-carboxamide]: the IC50 against KDR kinase was 10 to 25 µM; at Pim3 kinase, < 1 µM; at Pim2 kinase, 10 to 25 µM; on Pim1 kinase, < 1 µM; in experiment [1], < 1000 nM. Also, the EC50 in the experiment on PC3 cells fell in the range of 5 to 10 µM.
As to `Nc1ncc(-c2ccccc2)nc1C(=O)Nc1cnccc1N1CCNCC1` [Example 359, 3-amino-6-phenyl-pyrazine-2-carboxylic acid (4-piperazin-1-yl-pyridin-3-yl)-amide], the concentration for half-maximal inhibition (IC50) against KDR kinase is < 1 µM; on Pim3 kinase, < 1 µM; on Pim2 kinase, < 1 µM; at Pim1 kinase, < 1 µM; in experiment [1], < 1000 nM. In addition, the EC50 in the experiment on PC3 cells was < 1 µM.
As to `COc1ccc(-c2cnc(N)c(C(=O)Nc3cnccc3N3CCNCC3)n2)cc1` [Example 362, 3-amino-6-(4-methoxy-phenyl)-pyrazine-2-carboxylic acid (4-piperazin-1-yl-pyridin-3-yl)-amide], the IC50 is < 1 µM against KDR kinase; < 1 µM at Pim3 kinase; < 1 µM on Pim2 kinase; < 1 µM on Pim1 kinase; < 1000 nM in experiment [1]. In the experiment on PC3 cells, the EC50 is < 1 µM.
For `Nc1ncc(-c2ccccc2Oc2ccccc2)nc1C(=O)Nc1cnccc1N1CCC(N)CC1` [Example 365, 3-amino-6-(2-phenoxy-phenyl)-pyrazine-2-carboxylic acid (4-amino-3,4,5,6-tetra-hydro-2H-[1,4′]bipyridinyl-3′-yl)-amide], the concentration for half-maximal inhibition (IC50) against KDR kinase is < 1 µM; on Pim3 kinase, < 1 µM; on Pim2 kinase, 1 to 10 µM; on Pim1 kinase it was < 1 µM; in experiment [1], < 1000 nM. For the same compound, the EC50 with PC3 cells was > 10 µM.
As for `COc1ccc(-c2cnc(N)c(C(=O)Nc3cnccc3N3CCCC(N)C3)n2)cc1` (stereo not drawn) [Example 370, 3-amino-6-(4-methoxy-phenyl)-pyrazine-2-carboxylic acid (3-amino-3,4,5,6-tetra-hydro-2H-[1,4′]bipyridinyl-3′-yl)-amide], the IC50 at KDR kinase is < 1 µM; at Pim3 kinase it was < 1 µM; on Pim2 kinase, < 1 µM; at Pim1 kinase, < 1 µM; in experiment [1], < 1000 nM. Also, the EC50 in the experiment on PC3 cells is 5 to 10 µM.
For `Nc1ncc(-c2ccccc2)nc1C(=O)Nc1ccccc1N1CCCC(N)C1` (stereo not drawn) [Example 372, 3-amino-6-phenyl-pyrazine-2-carboxylic acid [2-(3-amino-piperidin-1-yl)-phenyl]-amide], the IC50 is < 1 µM on KDR kinase; < 1 µM at Pim3 kinase; < 1 µM on Pim2 kinase; < 1 µM at Pim1 kinase; < 1000 nM in experiment [1]. In the experiment on PC3 cells, the EC50 was 1 to 5 µM.
Regarding `Cc1cnc(N)c(C(=O)Nc2ccccc2N2CCCC(N)C2)n1` (stereo not drawn) [Example 376, 3-amino-6-methyl-pyrazine-2-carboxylic acid [2-(3-amino-piperidin-1-yl)-phenyl]-amide], the IC50 against KDR kinase was > 25 µM; on Pim3 kinase, < 1 µM; on Pim2 kinase, < 1 µM; on Pim1 kinase it was < 1 µM; in experiment [1] it was < 1000 nM. The EC50 in the experiment with PC3 cells is > 10 µM.
`Cc1cnc(N)c(C(=O)Nc2ccccc2N2CCC(N)CC2)n1` [Example 378, 3-amino-N-[2-(4-amino-piperidin-1-yl)phenyl]-6-methylpyrazine-2-carboxamide]: the IC50 is > 25 µM against KDR kinase; 1 to 10 µM on Pim3 kinase; 10 to 25 µM at Pim2 kinase; < 1 µM on Pim1 kinase; < 1000 nM in experiment [1]. Also, the EC50 in the experiment on PC3 cells was in the range of 1 to 5 µM.
On to `Nc1ncc(-c2ccccc2)nc1C(=O)Nc1ccccc1N1CCNCC1` [Example 382, 3-amino-6-phenyl-pyrazine-2-carboxylic acid (2-piperazin-1-yl-phenyl)-amide], for which the IC50 is 1 to 10 µM at KDR kinase; < 1 µM on Pim3 kinase; 1 to 10 µM on Pim2 kinase; < 1 µM on Pim1 kinase; < 1000 nM in experiment [1]. The compound further showed an EC50 in the experiment with PC3 cells of 1 to 5 µM.
For the compound `Nc1ncc(-c2cccc3ccccc23)nc1C(=O)Nc1ccccc1N1CCNCC1` [Example 389, 3-amino-6-naphthalen-1-yl-pyrazine-2-carboxylic acid (2-piperazin-1-yl-phenyl)-amide], the 50% inhibitory concentration (IC50) on KDR kinase was 1 to 10 µM; on Pim3 kinase it was 1 to 10 µM; at Pim2 kinase, 1 to 10 µM; on Pim1 kinase, < 1 µM; in experiment [1], < 1000 nM. Moreover, in the experiment with PC3 cells, the EC50 lay in the range of 1 to 5 µM.

The record behind these values is patent US20140249135A1, “PIM KINASE INHIBITORS AND METHODS OF THEIR USE” (NOVARTIS AG, priority 2007, published 2014).
